Our source for the EC50 values is US20240217990A1 (Gilead Sciences, Inc., priority 2021, published 2024).

Assay [1] has as its target T1, TLR7 (Homo sapiens, UniProt Q9NYK1).
T1 construct: Human peripheral blood mononuclear cells (PBMCs) consist of lymphocytes, monocytes and dendritic cells that express TLR7, TLR8 and TLR9; endogenous in cells; host or cells: cryopreserved human PBMCs from healthy donors
T1 sequence (Q9NYK1 27-1049): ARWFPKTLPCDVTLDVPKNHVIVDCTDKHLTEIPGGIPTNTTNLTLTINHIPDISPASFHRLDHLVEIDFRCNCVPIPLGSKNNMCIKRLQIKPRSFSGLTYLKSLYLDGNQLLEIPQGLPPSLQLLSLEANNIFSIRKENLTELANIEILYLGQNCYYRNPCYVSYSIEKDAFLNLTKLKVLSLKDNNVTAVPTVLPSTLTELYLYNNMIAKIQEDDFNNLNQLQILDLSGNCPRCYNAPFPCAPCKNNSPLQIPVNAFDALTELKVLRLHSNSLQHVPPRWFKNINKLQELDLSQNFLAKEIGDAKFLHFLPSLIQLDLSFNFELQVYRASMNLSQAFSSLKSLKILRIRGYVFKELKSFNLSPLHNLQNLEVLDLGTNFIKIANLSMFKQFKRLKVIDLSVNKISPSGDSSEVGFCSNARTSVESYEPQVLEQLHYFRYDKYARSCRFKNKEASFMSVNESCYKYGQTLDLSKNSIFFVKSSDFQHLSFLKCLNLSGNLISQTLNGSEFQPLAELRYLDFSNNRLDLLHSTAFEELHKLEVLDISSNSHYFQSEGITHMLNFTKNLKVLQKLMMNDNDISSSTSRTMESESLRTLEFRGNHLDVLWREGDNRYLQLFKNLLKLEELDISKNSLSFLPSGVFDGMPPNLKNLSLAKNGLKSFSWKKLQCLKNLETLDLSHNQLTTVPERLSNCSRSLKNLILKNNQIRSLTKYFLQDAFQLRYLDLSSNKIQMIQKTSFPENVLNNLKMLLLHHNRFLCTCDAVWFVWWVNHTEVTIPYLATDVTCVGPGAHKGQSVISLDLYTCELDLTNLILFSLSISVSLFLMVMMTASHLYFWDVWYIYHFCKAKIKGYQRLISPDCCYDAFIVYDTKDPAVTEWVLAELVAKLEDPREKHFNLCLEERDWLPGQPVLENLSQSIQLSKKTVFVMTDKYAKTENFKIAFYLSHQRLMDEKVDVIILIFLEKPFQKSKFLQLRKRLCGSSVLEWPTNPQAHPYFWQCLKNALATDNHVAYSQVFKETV
Kind of assay: TLR7 human PBMC cell-based assay (antagonist, GS-986 stimulated cytokine release). As to conditions: human PBMCs; TLR7 agonist GS-986 400 nM, 6 hours; cytokines (IL-6 and IFNα) in supernatant; read-out: TLR-7 EC50. A digest of the protocol:
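EC50 derived by sigmoidal fitting of IL-6 and IFNα levels, quantified by electrochemiluminescence in supernatants of human PBMCs given 400 nM GS-986 for 6 h. Cells (100,000/well in RPMI-1640, 10% FBS) had received test antagonist 1 h beforehand, 10 doses in quadruplicate, at 37 °C.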

Assay [2] has as its target T2, TLR8 (Homo sapiens, UniProt Q9NR97).
T2 construct: Human peripheral blood mononuclear cells (PBMCs) consist of lymphocytes, monocytes and dendritic cells that express TLR7, TLR8 and TLR9; endogenous in cells; host or cells: cryopreserved human PBMCs from healthy donors
T2 sequence (Q9NR97 27-1041): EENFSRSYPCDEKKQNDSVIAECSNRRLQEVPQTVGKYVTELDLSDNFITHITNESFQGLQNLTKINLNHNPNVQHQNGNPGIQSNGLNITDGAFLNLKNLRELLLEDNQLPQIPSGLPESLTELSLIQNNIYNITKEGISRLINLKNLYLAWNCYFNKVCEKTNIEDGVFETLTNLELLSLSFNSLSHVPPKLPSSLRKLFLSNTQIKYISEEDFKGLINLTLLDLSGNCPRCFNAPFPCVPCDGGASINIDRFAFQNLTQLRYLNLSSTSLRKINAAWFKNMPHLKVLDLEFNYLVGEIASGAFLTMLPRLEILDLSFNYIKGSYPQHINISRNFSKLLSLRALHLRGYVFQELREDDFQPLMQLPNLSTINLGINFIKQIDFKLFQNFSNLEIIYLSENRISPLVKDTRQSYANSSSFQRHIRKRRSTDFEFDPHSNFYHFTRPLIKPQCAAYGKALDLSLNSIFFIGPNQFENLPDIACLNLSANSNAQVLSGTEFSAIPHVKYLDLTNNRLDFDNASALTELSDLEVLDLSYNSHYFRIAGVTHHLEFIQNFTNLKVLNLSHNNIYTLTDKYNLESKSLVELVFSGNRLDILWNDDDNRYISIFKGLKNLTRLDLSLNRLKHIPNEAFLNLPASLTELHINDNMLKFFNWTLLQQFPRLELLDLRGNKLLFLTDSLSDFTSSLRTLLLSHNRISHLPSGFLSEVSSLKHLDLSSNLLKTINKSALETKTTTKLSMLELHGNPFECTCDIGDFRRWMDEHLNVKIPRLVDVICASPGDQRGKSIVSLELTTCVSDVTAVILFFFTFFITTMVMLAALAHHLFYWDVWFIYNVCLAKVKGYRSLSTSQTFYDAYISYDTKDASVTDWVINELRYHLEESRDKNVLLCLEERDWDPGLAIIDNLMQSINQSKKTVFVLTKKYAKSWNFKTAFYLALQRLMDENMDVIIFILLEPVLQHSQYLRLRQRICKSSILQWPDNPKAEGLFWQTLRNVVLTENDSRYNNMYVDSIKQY
Nature of the assay: TLR8 human PBMC cell-based assay (antagonist, Compound A stimulated cytokine release). As to conditions: human PBMCs; TLR8 agonist Compound A 800 nM, 6 hours; cytokines (TNFa and IL 12p40) in supernatant; read-out: TLR-8 EC50. A digest of the protocol:
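Cryopreserved donor PBMCs (100,000/well, RPMI + 10% FBS) were preincubated 1 h with antagonist (10-point dose response, quadruplicate), then stimulated with Compound A (800 nM final) for 6 h at 37 °C. TNFa and IL-12p40 in supernatants were measured by electrochemiluminescence; sigmoidal fits gave EC50.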

The structures appear in SMILES notation.

For the compound `Cc1cc(-c2[nH]c3cc(CN4CC5(C4)CS(=O)(=O)C5)sc3c2C(C)C)cn2ncnc12` [Example 271], the figures for the EC50 in assay [1] and in assay [2] were 35 nM and 51.2 nM, respectively.
For the compound `Cc1cc(-c2[nH]c3cc(-c4ccc(N5CCN(C)CC5)c(F)c4)sc3c2C(C)C)cn2ncnc12` [Example 272, 2-(3-Fluoro-4-(4-methylpiperazin-1-yl)phenyl)-6-isopropyl-5-(8-methyl-[1,2,4]triazolo[1,5-a]pyridin-6-yl)-4F1-thieno[3,2-b]pyrrole], the EC50 (commonly the midpoint of the concentration-response curve) is 1.8 nM in assay [1] and 4.9 nM in assay [2].
For the compound `Cc1c(-c2[nH]c3cc(C(=O)N(C)[C@@H]4CNC[C@H](C(F)(F)F)C4)sc3c2C(C)C)cn2ncnc2c1C` [Example 273, 5-(7,8-dimethyl-[1,2,4]triazolo[1,5-a]pyridin-6-yl)-6-isopropyl-N-methyl-N-((3S,5R)-5-(trifluoromethyl)piperidin-3-yl)-4H-thieno[3,2-b]pyrrole-2-carboxamide], the EC50 turned out to be 9.8 nM in assay [1] and 9.7 nM in assay [2].
For the compound `CCN1C[C@@H](N(C)C(=O)c2cc3[nH]c(-c4cn5ncnc5c(C)c4C)c(C(C)C)c3s2)C[C@@H](C(F)(F)F)C1` [Example 274, 5-(7,8-dimethyl-[1,2,4]triazolo[1,5-a]pyridin-6-yl)-N-((3S,5R)-1-ethyl-5-(trifluoromethyl)piperidin-3-yl)-6-isopropyl-N-methyl-4H-thieno[3,2-b]pyrrole-2-carboxamide], the EC50 in assay [1] was 360 nM; in assay [2], 70.7 nM.
`Cc1cc(-c2[nH]c3cc(C(=O)N(C)[C@H]4CNC[C@@H](C(F)(F)F)C4)sc3c2C(C)C)cn2ncnc12` [Example 275]: the EC50 in assay [1] was determined as 9 nM; in assay [2], 35.6 nM.
In the same order, the values of `Cc1cc(-c2[nH]c3cc(C(=O)N(C)[C@@H]4CNC[C@H](C(F)(F)F)C4)sc3c2C(C)C)cn2ncnc12` [Example 276] are 2.7 nM and 16.3 nM.
Consider `Cc1cc(-c2[nH]c3cc(C(=O)C4CCNCC4)sc3c2C(C)C)cn2ncnc12` [Example 277, (6-isopropyl-5-(8-methyl-[1,2,4]triazolo[1,5-a]pyridin-6-yl)-4H-thieno[3,2-b]pyrrol-2-yl)(piperidin-4-yl)methanone], for which the EC50 is 0.4 nM in assay [1] and 6.1 nM in assay [2].
As to `Cc1c(-c2[nH]c3cc(C4CCN(CC(N)=O)CC4)sc3c2C(C)C)cn2ncnc2c1C` [Example 279], the EC50 in assay [1] was determined as 2.78 nM; in assay [2], 0.78 nM.
Regarding `Cc1cc(-c2[nH]c3cc(C4CCC5(CCN(CC(N)=O)C5)C4)sc3c2C(C)C)cn2ncnc12` (centres unmarked) [Example 280], the EC50 is 2.89 nM in assay [1] and 7.51 nM in assay [2].
Taken in the same sequence, the figures for `Cc1cc(-c2[nH]c3cc(C4CCC5CNCCC5C4)sc3c2C(C)C)cn2ncnc12` (centres unmarked) [Example 281] were 0.87 nM and 4.48 nM.
Turning to `Cc1cc(-c2[nH]c3cc(C4CC5CCC4CN5)sc3c2C(C)C)cn2ncnc12` (centres unmarked) [Example 282], the results for the EC50 in assay [1] and in assay [2] were 1.32 nM and 11.7 nM, respectively.
Consider `Cc1nc2c(C)cc(-c3[nH]c4cc(C5CCN(CC(N)=O)CC5)sc4c3C(C)C)cn2n1` [Example 283], for which the EC50 in assay [1] amounted to 1.37 nM; in assay [2], 3.47 nM.
In the same order, the values of `Cc1cc(-c2[nH]c3cc(C4CCC5(CC4)CN(C(=O)[C@H]4COCCN4)C5)sc3c2C(C)C)cn2ncnc12` [Example 284] are 0.23 nM and 14.2 nM.
As to `Cc1cc(-c2[nH]c3cc(C4CCC5(CC4)CN(C(=O)[C@@H]4COCCN4)C5)sc3c2C(C)C)cn2ncnc12` [Example 285], the half-maximal effective concentration (EC50) came to 0.34 nM in assay [1] and 15.2 nM in assay [2].
With `Cc1c(-c2[nH]c3cc(C4CCN(CC(N)=O)CC4)sc3c2C(C)C)ccc2nn(C)c(=O)n12` [Example 286], the results for the EC50 in assay [1] and in assay [2] were greater than 1000 nM and 172 nM, respectively.
For `Cc1cc(-c2[nH]c3cc(C4CCC5CN(CC(N)=O)CCC5C4)sc3c2C(C)C)cn2ncnc12` (centres unmarked) [Example 287], the figures for the half-maximal effective concentration (EC50) in assay [1] and in assay [2] were 0.56 nM and 5.31 nM, respectively.
Taken in the same sequence, the figures for `Cc1cc(-c2[nH]c3cc(C4CC5CCC4CN5CC(N)=O)sc3c2C(C)C)cn2ncnc12` (centres unmarked) [Example 288] were 0.76 nM and 6.45 nM.
Taken in the same sequence, the figures for `Cc1cc(-c2[nH]c3cc(C4CC5CN(CC(N)=O)CC5C4)sc3c2C(C)C)cn2ncnc12` (centres unmarked) [Example 289] were 0.19 nM and 5.93 nM.
As for `Cc1cc(-c2[nH]c3cc(C4CCC5(CC4)CCN(CC(N)=O)CC5)sc3c2C(C)C)cn2ncnc12` [Example 290], the EC50 in assay [1] was 0.43 nM; in assay [2] it was 17.9 nM.
In the same order, the values of `Cc1cc(-c2[nH]c3cc(C4CCN(C(=O)[C@@H]5COCCN5)CC4)sc3c2C(C)C)cn2ncnc12` [Example 291] are 0.37 nM and 6.11 nM.
In the case of `Cc1cc(-c2[nH]c3cc(C4CCN(C(=O)[C@H]5COCCN5)CC4)sc3c2C(C)C)cn2ncnc12` [Example 292], the EC50 in assay [1] is 0.3 nM; in assay [2] it was 7.93 nM.
For the compound `Cc1cc(-c2[nH]c3cc(C4CCNCC4(C)C)sc3c2C(C)C)cn2ncnc12` (centres unmarked) [Example 293], the EC50 in assay [1] turned out to be 0.82 nM; in assay [2], 5.56 nM.
Taken in the same sequence, the figures for `Cc1cc(-c2[nH]c3cc(C4CC(C)(C)NC(C)(C)C4)sc3c2C(C)C)cn2ncnc12` [Example 294] were 49.5 nM and 19.5 nM.
On to `Cc1cc(-c2[nH]c3cc(C4CCNC5(CCC5)C4)sc3c2C(C)C)cn2ncnc12` (centres unmarked) [Example 296], for which the concentration for a half-maximal effect (EC50) is 3.76 nM in assay [1] and 8.2 nM in assay [2].
In the same order, the values of `Cc1cc(-c2[nH]c3cc(C4CC5CCCC(C4)N5)sc3c2C(C)C)cn2ncnc12` (centres unmarked) [Example 297] are 2.74 nM and 19.5 nM.
For the compound `Cc1cc(-c2[nH]c3cc(C4CCN(CC(N)=O)CC4(C)C)sc3c2C(C)C)cn2ncnc12` (centres unmarked) [Example 298], the EC50 was 4.02 nM in assay [1] and 17.7 nM in assay [2].
With `Cc1cc(-c2[nH]c3cc(C4CC5CCC(C4)N5CC(N)=O)sc3c2C(C)C)cn2ncnc12` (centres unmarked) [Example 299], the concentration for a half-maximal effect (EC50) in assay [1] is 0.56 nM; in assay [2], 10.4 nM.
As for `Cc1cc(-c2[nH]c3cc(C4CCC(C(=O)N5CCNCC5)CC4)sc3c2C(C)C)cn2ncnc12` (centres unmarked) [Example 300], the values for the EC50 in assay [1] and in assay [2] were 0.31 nM and 11.2 nM, respectively.
